Test results taken from patent publication US11453674B2, “Heterocyclic compound, preparation method and use thereof in medicine” (SUZHOU SINOVENT PHARMACEUTICALS CO., LTD., priority 2019, dated 2022).

Experiments:
rat hepatocytes = assay: Metabolite study in rat hepatocyte incubation system; assay type: in vitro ADME; settings: 180 min incubation, LC-MS
Protocol: (§1) Example 28: Study on Metabolites of Compound in Human and Rat Hepatocyte Incubation System
(§2) 1. Preparation of Stock and Working Solutions
(§3) Stock solution: A proper amount of test sample powders was dissolved in DMSO or other proper solvents, and the mixture was well mixed to give a stock solution (10 mM). The stock solution was preserved in a refrigerator at 4° C. for later use.
(§4) Working solution: The 10 mM stock solution was diluted to 1 mM working solution using acetonitrile, and well mixed for later use.
(§5) 2. Preparation of Thawing Medium I
(§6) Williams' Medium E, glutamate, HEPES, fetal bovine serum albumin, human recombinant insulin, dexamethasone, and cell separation medium (Percoll™) were mixed in a ratio of 700:10:15:50:1:0.1:300 for use.
(§7) 3. Preparation of Terminating Solution
(§8) An acetonitrile solution containing 0.1% formic acid was prepared as the terminating solution and preserved in a refrigerator at 4° C. for use.
(§9) 4. Isolation and Preparation of Hepatocyte Suspension
(§10) The cryopreserved hepatocytes were thawed in a water bath at 37° C. for about 90 s, and quickly poured into the pre-heated isolating buffer. Residual hepatocytes were washed using the isolating buffer. Cells were combined and mixed well, and centrifuged at room temperature for 5 min at 100×g. The supernatant was discarded and the cells were resuspended using pre-heated William' Medium E. 20 μL of hepatocyte suspension was added into 100 μL of 0.4% Trypan blue. The cells were counted, and a cell viability over 70% was required. The hepatocyte density was adjusted to 1.25×10^6 cells/mL using William' Medium E.
(§11) 5. Incubation and Treatment of Samples
(§12) 1) The test compound working solution was pre-incubated (pre-heated) in a constant-temperature incubator at 37° C. for 10 min. 2 μL of the working solution (1 mM) was pipetted to a cell culture plate containing 160 μL of hepatocyte suspension at 1.25×10^6 cells/mL, and the mixture was well mixed. 38 μL of Williams' Medium E was added. The mixture was well mixed and incubated in an incubator (in a total volume of 200 μL), and the timer was started. For the blank control, […] of Williams' Medium E was added instead of the working solution. For 0-min samples, 400 μL of acetonitrile (containing 0.1% formic acid) was added, followed by the working solution and Williams' Medium E.
(§13) 2) After 180 min of incubation, the samples were measured for the cell viability. Then 400 μL of acetonitrile (containing 0.1% formic acid) solution was added to terminate the reaction.
(§14) 3) After the reaction was terminated, the plate was shaken on a shaker at 300 rpm for 10 min, followed by centrifugation at least 10000×g for at least 10 min. After centrifugation, the supernatant was all transferred to centrifuge tubes and dried with nitrogen.
(§15) 4) The residues were re-dissolved in a suitable solvent, and centrifuged at least 10000×g for at least 15 min at room temperature. The supernatant was transferred to a sample analysis plate for LC-MS analysis.
(§16) 5) The methodology for 7-ethoxycoumarin (30 μM) was the same as that of test samples. Samples of the test compounds after incubation were used for metabolite assay only when the target metabolite was detected in the positive control sample. Otherwise, the above experiment should be repeated.
(§17) 6. Data Acquisition and Analysis […]

human hepatocytes = assay: Metabolite study in human hepatocyte incubation system; assay type: in vitro ADME; settings: 180 min incubation, LC-MS
Protocol: as §1, §2, §3, §4, §5, §6, §7, §8, §9, §10, §11, §12, §13, §14, §15, §16, §17

CYP2C9 = target: T1, CYP2C9 (Homo sapiens, UniProt P11712); assay: Inhibitory effect on CYP2C9 enzyme in microsomes (diclofenac probe); assay type: in vitro ADME; settings: microsomes 0.25 mg/mL, diclofenac 10 μM; IC50 higher than that of benzbromarone
T1 construct: from tissue
Protocol: Example 27: Evaluating the Inhibitory Effects of Compounds on CYP2C9 Enzyme
The assay was performed in 100 mM phosphate buffer in a total volume of 200 μL. The microsome concentration in the reaction system was 0.25 mg/mL, the concentrations of the test compounds were 10, 3.33, 1.11, 0.37, 0.12, 0.04 and 0 μM, the CYP2C9-specific probe substrate and the concentration were diclofenac (10 μM). The mixture was pre-incubated in a 37° C. thermostatic oscillator for 5 min, and a NADPH-generating system (containing 1.3 mM NADP^+, 3.3 mM D(+)-glucopyranose-6-phosphate, […] glucose-6-phosphate dehydrogenase, 3.3 mM MgCl2) was added to start the reaction. After incubation for 10 min, the reaction was terminated by adding an equal volume of acetonitrile. The mixture was vortexed and centrifuged at 13,000 rpm. The resulting supernatant was loaded to LC-MS-MS to determine the content of metabolites. The metabolite of diclofenac specifically obtained by CYP2C9 metabolism pathway is 4-hydroxydiclofenac. Sulfaphenazole was adopted as a specific CYP2C9 inhibitor. In the experiment, analysis was performed by GraphPad Primsm 5.0 to calculate the half maximal inhibitory concentration (IC50 value).

[1] = Pharmacokinetics in male SD rats (i.v. and p.o.); assay type: in vivo; settings: Sprague-Dawley (SD), rat, plasma, po, p.o. 10 mg/kg vs i.v. 1 mg/kg
Protocol: Example 29: Pharmacokinetics
Methodology for pharmacokinetics of compounds in rats:
1. Male SD rats were acclimatized in the animal room for 7 days after arrival.
2. Six SD rats were randomized into 2 groups, with 3 animals in each group. One group was administered by oral gavage (p.o.), and the other group was treated via tail vein injection (i.v.). Rats in the p.o. group were deprived of food overnight before administration.
3. After administration, about 200 μL of blood was collected from the orbital venous plexus at various time points.
4. The collected blood samples were centrifuged at 12000 rpm for 5 min at 4° C., and then the upper plasma samples were collected and preserved in a refrigerator at −20° C.
5. The procedures were summarized as follows:
6. LC-MS/MS (UPLC-MS/MS: liquid chromatography Waters Acquity UPLC (USA) and mass spectrometry 5500 Q Trap (Applied Biosystem/MDS SCIEX) or HPLC-MS\MS: liquid chromatography Agilent 1200 series (USA) and mass spectrometry API 4000 (Applied Biosystem/MDS SCIEX)) were used to determine the concentration of the compound in the plasma.
The pharmacokinetic parameters were calculated using the pharmacokinetic software WinNonlin [Model: Phoenix™ WinNonlin® 6.1; Manufacturer: Pharsight Corporation]. [Phoenix 1.1 User's Guide: p 251-p 300]

T1 sequence (P11712 whole entry): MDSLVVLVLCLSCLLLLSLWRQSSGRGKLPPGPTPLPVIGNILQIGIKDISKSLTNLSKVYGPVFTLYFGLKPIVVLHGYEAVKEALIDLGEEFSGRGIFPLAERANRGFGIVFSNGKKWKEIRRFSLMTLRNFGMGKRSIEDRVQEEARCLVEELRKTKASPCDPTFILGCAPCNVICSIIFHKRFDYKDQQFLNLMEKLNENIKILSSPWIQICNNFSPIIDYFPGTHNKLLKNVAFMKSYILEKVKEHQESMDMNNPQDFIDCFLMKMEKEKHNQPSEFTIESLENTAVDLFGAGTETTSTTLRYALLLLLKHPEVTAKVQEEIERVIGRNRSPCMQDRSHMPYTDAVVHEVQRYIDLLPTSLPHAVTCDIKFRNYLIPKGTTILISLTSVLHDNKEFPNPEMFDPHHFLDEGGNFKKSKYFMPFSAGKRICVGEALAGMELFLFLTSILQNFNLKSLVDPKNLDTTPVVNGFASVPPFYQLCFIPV

inhibitory effect on CYP enzymes (CYP2C9) (CYP2C9)	bioavailability [1]	Compound	toxic metabolites of benzbromarone type (rat hepatocytes)	toxic metabolites of benzbromarone type (human hepatocytes)
very low or no inhibitory effect	> 30%	CCc1nc2ncc(C(F)(F)F)cn2c1C(=O)c1cc(Br)c(O)c(Br)c1 [Example 5, (3,5-dibromo-4-hydroxyphenyl)(2-ethyl-6-(trifluoromethyl)imidazo[1,2-a]pyrimidin-3-yl)methanone]	not observed	not observed
very low or no inhibitory effect	> 30%	CCc1nc2ncccn2c1C(=O)c1cc(Br)c(O)c(Br)c1 [Example 20, 2,6-dibromo-4-([2-ethylimidazo[1,2-a]pyrimidin-3-yl]carbonyl) phenol]	not observed	not observed
very low or no inhibitory effect	> 30%	CCc1nc2cc(Cl)ncn2c1C(=O)c1cc(Br)c(O)c(Br)c1 [Example 21, (7-chloro-2-ethylimidazo[1,2-f]pyrimidin-3-yl)(3,5-dibromo-4-hydroxyphenyl)methanone]	not observed	not observed

Compound	inhibitory effect on CYP enzymes (CYP2C9) (CYP2C9)	bioavailability [1]	toxic metabolites of benzbromarone type (rat hepatocytes)	toxic metabolites of benzbromarone type (human hepatocytes)
CCc1nc2ncc(F)cn2c1C(=O)c1cc(Br)c(O)c(Br)c1 [Example 4, (3,5-dibromo-4-hydroxyphenyl)(2-ethyl-6-fluoroimidazo[1,2-a]pyrimidin-3-yl)methanone]	very low or no inhibitory effect	> 30%	not observed	not observed
CCc1nc2ncc(F)cn2c1C(=O)c1cc(Br)c(O)c(C#N)c1 [Example 14, 3-bromo-5-(2-ethyl-6-fluoroimidazo[1,2-a]pyrimidine-3-carbonyl)-2-hydroxybenzonitrile]	very low or no inhibitory effect	> 30%	not observed	not observed
